In ChEMBL document CHEMBL1135216, “New 2-(1-adamantylcarbonyl)pyridine and 1-acetyladamantane thiosemicarbazones-thiocarbonohydrazones: cell growth inhibitory, antiviral and antimicrobial activity evaluation” (Bioorg Med Chem Lett, 2002):
pEC50: −log10 of the molar value.

How the values were obtained:
Escherichia coli = experiment: Tested for the antimicrobial activity against Escherichia coli ATCC 25922; format: functional
HEL [1] = experiment: Tested for antiviral activity against thymidine kinase wild type Varicella zoster virus in human embryonic lung fibroblast; format: functional
E6SM [2] = experiment: Antiviral activity against thymidine kinase-deficient (TK-HSV-2G) virus in E6SM cell line(human embryonic skin-muscle fibroblasts); format: functional
MT4 [3] = experiment: (§1) Tested for effective concentration required to protect MT-4 cells against the cytopathicity of HIV-2(ROD); format: functional, cell-based; details: Homo sapiens
K562 [4] = experiment: Tested for the inhibitory concentration against cell growth of human leukemic cell line K562; format: functional
MOLT-4 [5] = experiment: Tested for the inhibitory concentration against cell growth of Tcell leukemic cell line MOLT-4 using MTT assay; format: functional; details: Homo sapiens
CCRF-CEM [6] = experiment: Tested for the inhibitory concentration against cell growth of Tcell leukemic cell line CCRF-CEM using MTT assay; format: functional; details: Homo sapiens
Klebsiella pneumoniae = experiment: Tested for the antimicrobial activity against Klebsiella pneumoniae ATCC 13883; format: functional
Vero [7] = experiment: Tested for antiviral activity against Reo-1 virus in African green monkey kidney cell (Vero); format: functional; details: Chlorocebus sabaeus
HuT78 [8] = experiment: Tested for the inhibitory concentration against cell growth of human leukemic cell line HuT78; format: functional
RPMI-8226 [9] = experiment: Tested for the inhibitory concentration against cell growth of […] multiple myeloma using MTT assay; format: functional; details: Homo sapiens
[10] = test system: Staphylococcus epidermidis; experiment: Tested for the antimicrobial activity against Staphylococcus epidermidis ATCC 12228; format: functional
Vero [11] = experiment: Tested for antiviral activity against coxsackie B-4 virus in African green monkey kidney cell (Vero); format: functional; details: Chlorocebus sabaeus
E6SM [12] = experiment: Tested for antiviral activity against vaccinia virus in human embryonic skin muscle fibroblast; format: functional; details: Muscle tissue
K562 [13] = experiment: Tested for the inhibitory concentration against cell growth of K562 chronic myeloid leukemia using MTT assay; format: functional; details: Homo sapiens
HEL [14] = experiment: Tested for cytotoxic activity in human embryonic lung fibroblast (HEL); format: functional
Staphylococcus hominis = experiment: Tested for the antimicrobial activity against Staphylococcus hominis ATCC 27844; format: functional
E6SM [15] = experiment: Tested for antiviral activity against VSV-virus in human embryonic skin muscle fibroblasts; format: functional; details: Muscle tissue
Vero [16] = experiment: Tested for antiviral activity against Sindbis virus in African green monkey kidney cell (Vero); format: functional; details: Chlorocebus sabaeus
E6SM [17] = experiment: Antiviral activity against thymidine kinase-deficient (TK-HSV-1)virus in E6SM cell line(human embryonic skin-muscle fibroblasts); format: functional
HL-60 [18] = experiment: Tested for the concentration required to reduce the viability of leukemia cells by 50% against cell growth of HL60 acute myeloid leukemia using MTT assay; format: functional; details: Homo sapiens, read-out: LC50 (the source's name)
K562 [19] = experiment: Tested for the concentration required to reduce the viability of leukemia cells by 50% against cell growth of K562 chronic myeloid leukemia using MTT assay; format: functional; details: Homo sapiens, read-out: LC50 (the source's name)
E6SM [20] = experiment: Tested for antiviral activity against herpes simplex virus type 1(KOS) in E6SM cell line(human embryonic skin-muscle fibroblasts); format: functional
CCRF-CEM [21] = experiment: Tested for the concentration required to reduce the viability of leukemia cells by 50% against cell growth of T cell leukemia cell line CCRF-CEM using MTT assay; format: functional; details: Homo sapiens, read-out: LC50 (the source's name)
Vero [22] = experiment: Tested for antiviral activity against Punta toro virus in African green monkey kidney cell (Vero); format: functional; details: Chlorocebus sabaeus
HL-60 [23] = experiment: Tested for the inhibitory concentration against cell growth of HL60 acute myeloid leukemia using MTT assay; format: functional; details: Homo sapiens
Vero [24] = experiment: Tested for cytotoxic activity in African green monkey kidney cells (Vero); format: functional; details: Chlorocebus sabaeus
MT4 [25] = experiment: Tested for cytotoxic concentration required to reduce the viability of MT-4 cells by 50%; format: functional, cell-based; details: Homo sapiens, read-out: EC50 (the source's name)
HeLa [26] = experiment: Tested for cytotoxic activity in human epithelial cell line (HeLa); format: functional
HuT78 [27] = experiment: Tested for the concentration required to reduce the viability of leukemia cells by 50% against cell growth of HuT78 T lymphoma using MTT assay; format: functional; details: Homo sapiens, read-out: LC50 (the source's name)
MOLT-4 [28] = experiment: Tested for the concentration required to reduce the viability of leukemia cells by 50% against cell growth of T cell leukemia cell line MOLT-4 using MTT assay; format: functional; details: Homo sapiens, read-out: LC50 (the source's name)
E6SM [29] = experiment: Tested for cytotoxic activity in human embryonic skin muscle fibroblast (E6SM); format: functional; details: Muscle tissue
HEL [30] = experiment: Tested for antiviral activity against thymidine kinase deficient Varicella zoster virus in human embryonic lung fibroblasts; format: functional
HEL [31] = experiment: Tested for antiviral activity against human cytomegalovirus (AD-169) in human embryonic lung fibroblasts; format: functional
MOLT-4 [32] = experiment: Tested for the inhibitory concentration against cell growth of human leukemic cell line MOLT-4; format: functional
HeLa [33] = experiment: Tested for antiviral activity against coxsackie-B4 virus in human epithelial cell line; format: functional
MT4 [34] = experiment: Tested for effective concentration required to protect MT-4 cells against the cytopathicity of HIV-1(IIIB); format: functional; details: Homo sapiens, read-out: LC50 (the source's name)
CCRF-CEM [35] = experiment: Tested for the inhibitory concentration against cell growth of human leukemic cell line CCRF-CEM; format: functional
HeLa [36] = experiment: The compound was tested for antiviral activity against VSV-virus in human epithelial cells; format: functional
RPMI-8226 [37] = experiment: Tested for the concentration required to reduce the viability of leukemia cells by 50% against cell growth of RPMI8226 multiple myeloma using MTT assay; format: functional; details: Homo sapiens, read-out: LC50 (the source's name)
HL-60 [38] = experiment: Tested for the inhibitory concentration against cell growth of human leukemic cell line HL60; format: functional
Vero [39] = experiment: Tested for antiviral activity against parainfluenza virus in african green monkey kidney cell (Vero); format: functional; details: Chlorocebus sabaeus
Staphylococcus aureus = experiment: Tested for the antimicrobial activity against Staphylococcus aureus ATCC 6538; format: functional
RPMI-8226 [40] = experiment: Tested for the inhibitory concentration against cell growth of human leukemic cell line RPMI8226; format: functional
HuT78 [41] = experiment: Tested for the inhibitory concentration against cell growth of HuT78 T lymphoma using MTT assay; format: functional; details: Homo sapiens
MT4 [42] = experiment: The compound was tested for effective concentration required to protect MT-4 cells against the cytopathicity of HIV-2(ROD); format: functional, cell-based; details: Homo sapiens
MT4 [43] = experiment: The compound was tested for effective concentration required to protect MT-4 cells against the cytopathicity of HIV-1(IIIB); format: functional, cell-based; details: Homo sapiens
MT4 [44] = experiment: The compound was tested for cytotoxic concentration required to reduce the viability of MT-4 cells; format: functional; details: Homo sapiens
HEL [45] = experiment: Tested for antiviral activity against thymidine kinase deficient Varicella zoster virus in human embryonic lung fibroblasts
E6SM [46] = experiment: Tested for antiviral activity against thymidine kinase-deficient (TK-HSV-2G) virus in E6SM cell line(human embryonic skin-muscle fibroblasts); format: functional
E6SM [47] = experiment: The compound was tested for antiviral activity against thymidine kinase-deficient (TK-HSV-1)virus in E6SM cell line(human embryonic skin-muscle fibroblasts); format: functional
MT4 [48] = experiment: as §1; format: functional; details: Homo sapiens, read-out: LC50 (the source's name)

N/N=C(\S)N/N=C(/c1ccccn1)C12CC3CC(CC(C3)C1)C2
> 3040 µg/mL: MIC (Escherichia coli) | MIC (Klebsiella pneumoniae) | MIC [10] | MIC (Staphylococcus hominis) | MIC (Staphylococcus aureus)
80 µg/mL: MCC (Vero [24])
400 µg/mL: MCC (HeLa [26])
> 80 µg/mL: MIC (Vero [7]) | MIC (Vero [11]) | MIC (Vero [16]) | MIC (Vero [22]) | MCC (E6SM [29]) | MIC (HeLa [33]) | MIC (HeLa [36]) | MIC (Vero [39])
41.7 µM: GI50 (K562 [4])
< 4.57: pEC50 (MT4 [3]) | pEC50 (MT4 [34])
27.3 µM: CC50 (MT4 [25])
> 5 µg/mL: MIC (HEL [31])
100 µM: TGI (MOLT-4 [5]) | TGI (CCRF-CEM [6]) | GI50 (HuT78 [8]) | TGI (RPMI-8226 [9]) | TGI (K562 [13]) | CC50 (HL-60 [18]) | CC50 (K562 [19]) | CC50 (CCRF-CEM [21]) | TGI (HL-60 [23]) | CC50 (HuT78 [27]) | CC50 (MOLT-4 [28]) | GI50 (MOLT-4 [32]) | GI50 (CCRF-CEM [35]) | CC50 (RPMI-8226 [37]) | TGI (HL-60 [38]) | GI50 (RPMI-8226 [40]) | TGI (HuT78 [41])
> 20 µg/mL: MIC (HEL [1]) | MCC (HEL [14]) | MIC (HEL [30])
> 16 µg/mL: MIC (E6SM [2]) | MIC (E6SM [12]) | MIC (E6SM [15]) | MIC (E6SM [17]) | MIC (E6SM [20])

Cc1cn([C@H]2C[C@H](N=[N+]=[N-])[C@@H](CO)O2)c(=O)[nH]c1=O [ZIDOVUDINE]
8.22: pEC50 (MT4 [42])
8.19: pEC50 (MT4 [43])
> 500 µM: CC50 (MT4 [44])

Nc1nc2c(ncn2COCCO)c(=O)[nH]1 [ACYCLOVIR]
1.1 µg/mL: MIC (HEL [1])
> 400 µg/mL: MIC (E6SM [12]) | MCC (E6SM [29])
12.3 µg/mL: MIC (HEL [45])
48 µg/mL: MIC (E6SM [15]) | MIC (E6SM [47])
> 50 µg/mL: MCC (HEL [14])
0.08 µg/mL: MIC (E6SM [20]) | MIC (E6SM [46])

C/C(=N/N=C(/S)N/N=C(\S)c1ccc(Cl)cc1)C12CC3CC(CC(C3)C1)C2
> 2 µg/mL: MIC (HEL [1]) | MIC (HEL [30]) | MIC (HEL [31])
> 5 µg/mL: MIC (E6SM [12]) | MCC (HEL [14])
> 400 µg/mL: MCC (Vero [24])
> 40 µg/mL: MIC (Vero [7]) | MIC (Vero [11]) | MIC (E6SM [15]) | MIC (Vero [16]) | MIC (E6SM [20]) | MIC (Vero [22]) | MIC (E6SM [46]) | MIC (E6SM [47]) | MIC (HeLa [33]) | MIC (HeLa [36]) | MIC (Vero [39])
10.1 µM: CC50 (MT4 [25])
1150 µg/mL: MIC [10] | MIC (Staphylococcus hominis) | MIC (Staphylococcus aureus)
100 µM: GI50 (K562 [4]) | TGI (MOLT-4 [5]) | TGI (CCRF-CEM [6]) | GI50 (HuT78 [8]) | TGI (RPMI-8226 [9]) | TGI (K562 [13]) | CC50 (HL-60 [18]) | CC50 (K562 [19]) | CC50 (CCRF-CEM [21]) | TGI (HL-60 [23]) | CC50 (HuT78 [27]) | CC50 (MOLT-4 [28]) | GI50 (MOLT-4 [32]) | GI50 (CCRF-CEM [35]) | CC50 (RPMI-8226 [37]) | GI50 (HL-60 [38]) | GI50 (RPMI-8226 [40]) | TGI (HuT78 [41])
> 10 µM: CC50 (MT4 [48])
< 5.00: pEC50 (MT4 [34])
> 2300 µg/mL: MIC (Escherichia coli) | MIC (Klebsiella pneumoniae)
> 200 µg/mL: MCC (HeLa [26])
200 µg/mL: MCC (E6SM [29])
